Assay results taken from publication PMC12723449, “From Pharmacophore to Warhead: NAD^+‐Targeting Triazoles as Mechanism‐Based Sirtuin Inhibitors” (Angewandte Chemie (International Ed. in English), 2025).
Blank lines part the entries; values can stand above or below the molecule they belong to.

Key:
SIRT2 [1] = molecular target: T1, SIRT2 (Homo sapiens, UniProt Q8IXJ6); test: Fluorescence-based demyristoylation assay (BSA-Assay); format: biochemical
T1 construct: For assay experiments, strep-tagged human SIRT1134−747 and SIRT256-356 were expressed and purified as previously; Strep-tag; made in house; host or cells: E. coli BL21 Star (DE3)
T1 sequence (Q8IXJ6 56-356 limits assumed): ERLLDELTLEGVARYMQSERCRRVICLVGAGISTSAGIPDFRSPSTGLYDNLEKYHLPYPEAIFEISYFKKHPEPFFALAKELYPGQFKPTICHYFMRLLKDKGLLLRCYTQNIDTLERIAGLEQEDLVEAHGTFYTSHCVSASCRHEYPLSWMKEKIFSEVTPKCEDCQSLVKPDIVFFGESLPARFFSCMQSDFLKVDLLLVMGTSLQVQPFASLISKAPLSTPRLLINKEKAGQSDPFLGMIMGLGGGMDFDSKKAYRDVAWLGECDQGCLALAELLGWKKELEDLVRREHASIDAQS
Description: Determination of IC50 values (SIRT2) via fluorescence-based demyristoylation assay (BSA-Assay) The fluorescence-based demyristoylation assay was conducted in a continuous manner in a black 384-well microplate (OptiPlate-384 F, PerkinElmer) with a total volume of 40 µL per well and a final DMSO concentration of 5% (v/v), following a published procedure.[9] A mixture of 14 µL SIRT2 (final concentration of 1 nM) in assay buffer (20 mM Tris, 150 mM NaCl, […], pH 7.8) freshly supplemented with 2 mg/mL of BSA, 14 µL of substrate (F4, KM = 33 ± 5 nM[9], final concentration of 40 nM) and 2 µL of inhibitor solution (final concentration of 100 µM – 0.002 µM, serial 1:2 or 1:4 dilutions) was incubated at 25 °C and 350 rpm for 5 min. Samples with 5% (v/v) DMSO instead of inhibitor were measured as a positive control, and samples with assay buffer and 5% (v/v) DMSO instead of SIRT2 were measured as a negative control. The reaction was started with the addition of 10 µL NAD+ (final concentration of 500 µM) and the product formation was immediately monitored by the change of the fluorescence intensity at 25 °C for 20 min. For NAD+ preincubation experiments, instead of the substrate, 10 µL of NAD+ (final concentration of 500 µM) was added to the solution and incubated at 25 °C and 350 rpm for 15 min. The reaction was started with the addition of 14 µL substrate (final concentration of 40 nM) and the product formation was immediately monitored by the change of the fluorescence intensity at 25 °C every 60 s for 20 min using a microplate reader (λEx = 485 nm, λEm = 530-10 nm, BMG POLARstar Optima, BMG Labtech, Germany).
The activity was normalized using the positive control as 100% and the negative control as 0%. The normalized activity (v/v0) was plotted as a function of the logarithm of the inhibitor concentration [I], and a nonlinear fit was performed according to the following equation to determine the IC50 value.[9] […]

SIRT3 = molecular target: T2, SIRT3 (Homo sapiens, UniProt Q9NTG7); test: Fluorescence-based deacetylation assay (ZMAL-assay), SIRT3; format: biochemical; conditions: 37 °C, assay limit 0.10 µM; for IC50: read-out: SIRT3 (deac.) IC50
T2 construct: Human SIRT3118-395 was expressed and purified as previously described.[5]; made in house
T2 sequence (Q9NTG7 118-395 limits assumed): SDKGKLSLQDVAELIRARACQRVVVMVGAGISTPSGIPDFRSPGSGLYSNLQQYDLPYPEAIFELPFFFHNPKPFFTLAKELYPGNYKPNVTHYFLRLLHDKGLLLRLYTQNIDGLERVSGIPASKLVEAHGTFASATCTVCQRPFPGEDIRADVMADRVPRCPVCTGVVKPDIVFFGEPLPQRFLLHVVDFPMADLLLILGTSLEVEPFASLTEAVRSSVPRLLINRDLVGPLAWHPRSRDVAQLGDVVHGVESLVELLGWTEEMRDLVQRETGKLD
Description: (§1) Determination of IC50 values (SIRT1, SIRT2, SIRT3) via fluorescence-based deacetylation assay […]
(§2) The fluorescence-based deacetylation assay was conducted in a black 384-well microplate (OptiPlate-384 F, PerkinElmer) with a total volume of 30 µL per well and a final DMSO concentration of 2% (v/v) according to a […]
(§3) concentration of 100 nM) in assay buffer (50 mM Tris, 137 mM NaCl, 2.7 mM KCl, 1m MgCl2, 0.01% Tween, 0.05 mg/mL BSA, 0.2 mM TCEP, pH 8.0), 5 µL of substrate (ZMAL, final concentration of 10.5 µM), 5 µL of NAD+ (final concentration of 500 µM) and 10 µL of inhibitor solution (final concentration of 30 µM – 0.014 µM, serial 1:3 dilutions) was incubated at 37 °C and 300 rpm for 4 h. A solution of trypsin (final concentration of 0.5 mg/mL) and nicotinamide (final concentration of 4 mM) was added and incubated at 37 °C and 300 rpm for 30 min to stop the reaction. Samples with 2% (v/v) DMSO instead of inhibitor were prepared as a positive control, and samples with 2% (v/v) DMSO instead of SIRT enzyme were prepared as a negative control. Fluorescence intensity was measured with a microplate reader (λEx = 380-10 nm, λEm = 460 nm, BMG POLARstar Optima, BMG Labtech, Germany). IC50 values were then determined using a nonlinear regression fit with Origin Pro 2019 software. All experiments were performed at least in duplicates. […]

SIRT2 [2] = molecular target: T1, SIRT2; test: Fluorescence-based deacetylation assay (ZMAL-assay), SIRT2; format: biochemical; conditions: 37 °C, assay limit 0.10 µM, read-out: SIRT2 (deac.) IC50
Description: as §1, §2, §3

SIRT1 = molecular target: T3, SIRT1 (Homo sapiens, UniProt Q96EB6); test: Fluorescence-based deacetylation assay (ZMAL-assay), SIRT1; format: biochemical; conditions: 37 °C, assay limit 0.10 µM; for IC50: read-out: SIRT1 (deac.) IC50
T3 construct: For assay experiments, strep-tagged human SIRT1134−747 and SIRT256-356 were expressed and purified as previously; Strep-tag; made in house; host or cells: E. coli BL21 Star (DE3)
T3 sequence (Q96EB6 134-747 limits assumed): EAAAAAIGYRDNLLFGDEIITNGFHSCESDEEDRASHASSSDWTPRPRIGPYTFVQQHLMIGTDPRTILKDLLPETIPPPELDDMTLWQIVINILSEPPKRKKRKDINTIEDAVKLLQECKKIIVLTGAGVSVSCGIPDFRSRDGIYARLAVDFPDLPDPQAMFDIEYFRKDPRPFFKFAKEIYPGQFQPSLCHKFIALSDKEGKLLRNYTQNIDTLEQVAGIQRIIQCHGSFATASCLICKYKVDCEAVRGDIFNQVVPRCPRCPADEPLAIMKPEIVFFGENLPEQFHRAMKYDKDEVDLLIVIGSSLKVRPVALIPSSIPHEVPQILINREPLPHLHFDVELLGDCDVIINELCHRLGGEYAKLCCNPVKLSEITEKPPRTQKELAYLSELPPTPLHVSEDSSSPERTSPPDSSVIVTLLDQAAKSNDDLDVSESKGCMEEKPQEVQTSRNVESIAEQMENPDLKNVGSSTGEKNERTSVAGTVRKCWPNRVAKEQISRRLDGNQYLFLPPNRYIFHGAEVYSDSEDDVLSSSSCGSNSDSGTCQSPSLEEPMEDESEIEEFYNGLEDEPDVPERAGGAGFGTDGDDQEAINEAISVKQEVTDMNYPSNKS
Description: as §1, §2, §3

SIRT2 [3] = molecular target: T1, SIRT2; test: Differential scanning fluorimetry (DSF) / fluorescence thermal shift assay; format: binding; conditions: 10 µM compound, with NAD+ addition
Description: Differential scanning fluorimetry (DSF) assay
Differential scanning fluorimetry assays were performed in white 96-well plates (Hard-Shell PCR Plates, BioRad, USA) with a total volume of 20 µL per well and a final DMSO concentration of 5% (v/v), following a published
A solution of 10 µL SIRT2 (final concentration of 6.0 µM) and SYPRO Orange (5x, Sigma-Aldrich, Germany) in assay buffer (25 mM Tris-HCl, 150 mM NaCl, 1 mM DTT, pH 8.0) was mixed with 10 µL of compound and incubated at 25 °C and 350 rpm for 5 min. Where applicable, NAD+ was added to a final concentration of 2.5 mM. Fluorescence
(C1000 Touch™ Thermal Cycler, CFX96™ Real-Time System, BioRad, USA). Melting temperatures were determined using GraphPad Prism, following a published procedure.[6]

[4] = molecular target: T4, NanoLuc–SIRT2 fusion protein in HEK293T cells (Homo sapiens, UniProt Q8IXJ6); test: NanoBRET cellular target engagement assay; format: cell-based; conditions: without digitonin
T4 construct: transfected HEK293T cells expressing the NanoLuc-tagged SIRT250-356 fusion protein were used instead of transient; expressed in transfected cells; host or cells: HEK293T (stably transfected)
T4 sequence (Q8IXJ6 50-356 limits assumed): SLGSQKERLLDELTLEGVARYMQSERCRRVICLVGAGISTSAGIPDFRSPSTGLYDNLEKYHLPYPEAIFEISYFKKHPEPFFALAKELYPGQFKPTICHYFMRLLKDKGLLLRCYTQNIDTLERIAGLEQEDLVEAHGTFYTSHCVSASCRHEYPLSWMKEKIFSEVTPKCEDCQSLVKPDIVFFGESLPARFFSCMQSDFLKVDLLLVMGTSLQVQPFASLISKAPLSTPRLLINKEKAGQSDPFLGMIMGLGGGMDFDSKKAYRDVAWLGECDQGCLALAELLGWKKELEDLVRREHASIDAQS
Description: The NanoBRET target engagement assay was performed as previously described[2] with the modification that stably transfected HEK293T cells expressing the NanoLuc-tagged SIRT250-356 fusion protein were used instead of transient transfection. Briefly, HEK293T-NLuc- SIRT250-356 cells were cultured under standard conditions (37 °C, 5% CO2) in DMEM supplemented with 10% fetal bovine serum, 2 mM glutamine, and 300 µg/mL hygromycin as a selection marker. For the assay, cells were trypsinized, resuspended in Opti-MEM® reduced serum medium, and adjusted to a concentration of 2 × 10^5 cells per mL. […]
µM was used. Serially diluted inhibitor and tracer were added to the cell suspension, and 100 μL were seeded into 96-well white, sterile, nonbinding surface plates. To evaluate the cellular permeability of LTDi-1 (6), the non-ionic detergent digitonin (50 µg/ml) was added. Plates were incubated at 37 °C with 5% CO2 for 2 h. For BRET measurements, NanoBRET NanoGlo Substrate (Promega cat. #N1571) was added to the wells according to the […]
All measurements were performed using the 2102 EnVisionTM Multilabel Reader (PerkinElmer), equipped with a 460 nm filter (donor) and a 615 nm filter (acceptor). The BRET ratio was calculated as the ratio of acceptor to donor signal, and data were normalized to vehicle-treated controls. Apparent intracellular binding affinities (EC50 values) were determined by fitting dose-response curves using nonlinear regression analysis in GraphPad Prism. […]

[5] = molecular target: T5, NanoLuc–SIRT2 fusion protein in HEK293T cells (Homo sapiens, UniProt Q8IXJ6); test: Kinetic NanoBRET washout assay (target residence time); format: cell-based; conditions: 8 µM (10 × EC50), 2 h preincubation, 2 h washout
T5 construct: HEK293T cells stably expressing the NanoLuc-SIRT250-364-fusion target protein were seeded into the coated plates; expressed in transfected cells; host or cells: HEK293T (stably expressing)
T5 sequence (Q8IXJ6 50-364 limits assumed): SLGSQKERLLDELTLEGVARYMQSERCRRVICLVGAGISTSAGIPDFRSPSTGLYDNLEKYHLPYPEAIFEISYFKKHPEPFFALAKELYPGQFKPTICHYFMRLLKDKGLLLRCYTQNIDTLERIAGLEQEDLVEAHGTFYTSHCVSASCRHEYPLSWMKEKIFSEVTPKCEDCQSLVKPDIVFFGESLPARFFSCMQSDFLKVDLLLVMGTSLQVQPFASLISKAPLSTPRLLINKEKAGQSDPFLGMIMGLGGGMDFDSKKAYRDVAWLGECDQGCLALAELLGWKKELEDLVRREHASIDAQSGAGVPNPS

[6] = molecular target: BT-6 (biotinylated analogue of compound 6); test: BLI; SIRT2 (25–400 nM) incubated 1 h with BT-6 (500 nM) and NAD+ (500 µM), then immobilised on streptavidin-coated biosensors; dissociation followed
[7] = molecular target: BT-6 (biotinylated analogue of compound 6); test: BLI; SIRT2 (25–400 nM) incubated 1 h with BT-6 (500 nM) without NAD+, then immobilised on streptavidin-coated biosensors; dissociation followed
[8] = BSA-Assay, 25 °C, read-out: SIRT2 (demyr.) IC50
[9] = 15 min NAD+ preincubation, read-out: IC50, SIRT2 demyristoylation after NAD+ preincubation

Molecule: Cc1cc(C)nc(SCC(=O)Nc2ncc(Cc3cccc(OCc4cn(Cc5ccc(OCCN6CCOCC6)cc5)nn4)c3)s2)n1 [Compound 2, reference compound]
- IC50 (SIRT2 [1]; [8]): 50 ± 10 nM
- SIRT3 (deac.) IC50 (SIRT3): n.i.
- IC50 (SIRT2 [2]): 120 ± 10 nM
- SIRT1 (deac.) IC50 (SIRT1): n.i.

Molecule: CCCCCCCCCCCCc1cn(CCC[C@H](NC(=O)[C@H](CCCCN)NC(=O)[C@@H]2CCCN2C(=O)[C@H](CC(C)C)NC(=O)[C@H](C)NC(=O)[C@H](CCC(=O)O)NC(C)=O)C(=O)N[C@H](C(=O)NCC(=O)NCC(N)=O)[C@@H](C)O)nn1 [Compound 5]
- IC50 (SIRT2 [1]; [9]): 760 ± 250 nM
- IC50 (SIRT2 [1]; [8]): 1940 ± 510 nM
- IC50 (SIRT3): 3300 ± 200 nM
- IC50 (SIRT2 [2]): < 100 nM
- IC50 (SIRT1): 14200 ± 1500 nM
- ΔTm at 10 µM (SIRT2 [3]): 9.9 °C

B1: Sirtuin 2 (SIRT2) (enzyme)
chain: MAEPDPSHPLETQAGKVQEAQDSDSDSEGGAAGGEADMDFLRNLFSQTLSLGSQKERLLDELTLEGVARYMQSERCRRVICLVGAGISTSAGIPDFRSPSTGLYDNLEKYHLPYPEAIFEISYFKKHPEPFFALAKELYPGQFKPTICHYFMRLLKDKGLLLRCYTQNIDTLERIAGLEQEDLVEAHGTFYTSHCVSASCRHEYPLSWMKEKIFSEVTPKCEDCQSLVKPDIVFFGESLPARFFSCMQSDFLKVDLLLVMGTSLQVQPFASLISKAPLSTPRLLINKEKAGQSDPFLGMIMGLGGGMDFDSKKAYRDVAWLGECDQGCLALAELLGWKKELEDLVRREHASIDAQSGAGVPNPSTSASPKKSPPPAKDEARTTEREKPQ
- koff [6]: 0.00026 s⁻¹
- koff [7]: 0.0071 s⁻¹

Results, then the molecule that gave them:

- IC50 (SIRT2 [1]; [9]): 36 ± 2 nM
- IC50 (SIRT2 [1]; [8]): 460 ± 40 nM
- IC50 (SIRT3): 8200 ± 400 nM
- IC50 (SIRT2 [2]): < 100 nM
- IC50 (SIRT1): 230 ± 20 nM
Molecule: CCCCCCCCCCCCc1cn(CCCC[C@H](NC(=O)[C@H](CCCCN)NC(C)=O)C(N)=O)nn1 [Compound 6a]

- extent of cellular target engagement [4]: complete target engagement
- inhibition after washout [5]: retained full inhibition throughout
Molecule: CCCCCCCCCCCCc1cn(CCCC[C@H](NC(=O)[C@H](CCCCN)NC(=O)[C@@H]2CCCN2C(C)=O)C(=O)N[C@H](C(N)=O)[C@@H](C)O)nn1 [Compound 6b]
